The structures appear in SMILES notation. Where a name gives a salt, the structure may show the parent alone.

One may read the Inhibition as the share of the control response that was lost under treatment. A word on the inhibition in vivo: it is the drop in the measured response relative to a control, in per cent.

Data set [1] concerns Secretion of Gastric Acids Induced by Insuline. Briefly: Inhibitory effect on secretion of gastric acids induced by insuline (modified Shield's Method). The data set is classed as in vivo. The following applies: rat, i.v., insuline 4 ug/kg. How it is done: Accordingly, the compounds of this invention are very useful as a unique type of anti-ulcer agent. […] The results obtained in this experiment are shown in Table 5 and Table 6 below. |Inhibitory Effects on Secretion of Gastric Acids |Induced by Insuline (dose: 4 ug/kg, i.v.)

Data set [2] has as its system Stress Ulcer. Description: Inhibitory Effect on Stress Ulcer in Rat (Water Immersion Restraint Method). It is filed as in vivo. The conditions noted are these: water immersion restraint 21° C.; for inhibition in vivo at 100 mg/kg / inhibition in vivo at 200 mg/kg / inhibition in vivo at 400 mg/kg: Rattus norvegicus. The method, then:
In this experiment, test compounds were administered as the free base, in the form of the hydrochloric acid salts or in the form of the hydrate. | Inhibitory Effect on Stress Ulcer in Rat |Inhibitory Effect on Stress Ulcer in Rat |Inhibitory Effect on Stress Ulcer in Rat Note 2. Inhibitory effect on Stress Ulcer was examined according to Water Immersion Restraint Method disclosed in Japanese Journal of Pharmacology, Vol. 18, 9 (1968). Note 3. As test animals, seven rats weighing about 300 g were used for each dosage level. Note 4. Test compounds were injected intraperitoneally or administered orally before 30 minutes of water immersion restrain. Note 5. Test animals were immersed and restrained in water at 21° C. for 20 hours in experiment of Tables 2 and 3 and at 21° C. for 7 hours in experiment of Table 4.

In data set [3] the test system is Secretion of Gastric Acids Induced by Carpronium Chloride. Briefly: Inhibitory effect on secretion of gastric acids induced by carpronium chloride (modified Shield's Method). The data set is classed as in vivo. The conditions noted are these: rat, i.v., carpronium chloride 8-10 μg/rat. The method, then:
Accordingly, the compounds of this invention are very useful as a unique type of anti-ulcer agent. […] The results obtained in this experiment are shown in Table 5 and Table 6 below. |Inhibitory Effects on Secretion of Gastric Acids Induced |by Carponium Chloride (dose: 8-10 μg/rat, i.v.)

For data set [4], the system named is cardiovascular system. The conditions noted are these: Pharmacometrics, Vol. 8, 835-846 (1974); cited from earlier work.
Data set [5] relates to ulcer. The conditions noted are these: The Pharmacological Basis of Therapeutics, 4th Edition, 234 (1970); cited from earlier work.
A short description of data set [6]: isothermal absorption curve, stability of hydrate under high humidity. The data set is classed as physicochemical. How it is done: (§1) It was also confirmed by thin layer chromatography that the hydrate was stable in methanol at room temperature for 48 hours. This means that it is possible to use methanol as a solvent in producing pharmaceutical preparations. It was further confirmed that a mixture of the hydrate of this invention with various kinds of additives such as carriers, diluents, etc., was stable under accelerated conditions, i.e., under high humidity at an elevated temperature for one month or under the light irradiation from 2,500 lux for one month.

The nature of data set [7]: Stability of Mixture of Hydrate with Various Kinds of Additives (one month storage), color change. The data set is classed as physicochemical. Further details: key to color change: --: no color change; ±: slight color change; +: clear color change. How it is done:
as §1
Stability of Mixture of Hydrate with Various
Kinds of Additives (one month storage)
The meaning of the symbols is as follows.
Samples were prepared by well mixing 100 mg of the hydrate with 100 mg of
the additive except for magnesium stearate and talc. In case of using
magnesium stearate or talc as the additive, 10 mg of the hydrate was used

Data set [8] in a line: stability of hydrate in methanol by thin layer chromatography. The conditions noted are these: room temperature, 48 hours. The data set is classed as physicochemical. How it is done: as §1
[9] abbreviates: ip, 20 h, intraperitoneal, 100 mg/kg.

For `COc1ccc(CCNC(=O)CNc2cccc(C(N)=O)c2)cc1OC.Cl` [Compound 2, 2-(3-carbamoylphenylamino)-N-(3,4-dimethoxyphenethyl)acetamide hydrochloride], the Inhibition in data set [1] (10 mg/kg) was determined as 80%; in data set [3] (50 mg/kg), 0%; in data set [3] (100 mg/kg), 0%. Moreover, in data set [2] (po, 20 h, 100 mg/kg), 100 mg/kg produced 5% inhibition in vivo. Further, the inhibition in vivo at 200 mg/kg in data set [2] (po, 20 h) turned out to be 21%. The compound also came in with an inhibition in vivo at 400 mg/kg in data set [2] (po, 20 h) of 33%.

`COc1ccc(CCNC(=O)CNc2cccc(S(N)(=O)=O)c2)cc1OC` displayed an inhibition in vivo at 100 mg/kg in data set [2] (setting [9]) of 47%.

On to `COc1ccc(CCNC(=O)CNC(=O)c2ccccc2OC)cc1OC`, for which the inhibition in vivo at 100 mg/kg in data set [2] (setting [9]) is 50%.

`COc1ccc(CCNC(=O)CNc2ccccc2)cc1OC` [drawing 8] showed an inhibition in vivo at 100 mg/kg in data set [2] (setting [9]) of 42%.

In the case of `COc1ccc(C(N)=O)c(NCC(=O)NCCc2ccc(OC)c(OC)c2)c1`, in data set [2] (setting [9]), 100 mg/kg produced 44% inhibition in vivo.

As to `COc1ccc(CCNC(=O)CNc2ccc(Cl)c(C(N)=O)c2)cc1OC`, in data set [2] (setting [9]), the inhibition in vivo at 100 mg/kg is 35%.

Consider `COc1ccc(CCNC(=O)CNc2cc(Cl)ccc2C(N)=O)cc1OC` [Compound 1, 2-(2-carbamoyl-5-chlorophenylamino)-N-(3,4-dimethoxyphenethyl)acetamide], for which the Inhibition turned out to be 50% in data set [1] (50 mg/kg) and 0% in data set [3] (50 mg/kg). In data set [2] (po, 20 h, 100 mg/kg), the inhibition in vivo at 100 mg/kg was 5%. This compound showed an inhibition in vivo at 200 mg/kg in data set [2] (po, 20 h) of 17%. In data set [2] (po, 20 h), this compound registered an inhibition in vivo at 400 mg/kg of 18%.

For `CNc1nc(Cl)c(SC)c(NCC(=O)NCCc2ccc(OC)c(OC)c2)n1`, in data set [2] (setting [9]), testing at 100 mg/kg gave an inhibition in vivo of 17%.

Take `NCCc1ccc(O)c(O)c1` [Dopamine, 3,4-dihydroxyphenethylamine]: the “action on cardiovascular system” value in data set [4] is “acts strongly on cardiovascular system”. In addition, the anti-ulcer activity result in data set [5] was “has anti-ulcer activity”.

`COc1ccc(CCNC(=O)CNc2cccc(C(N)=O)c2)cc1OC` [drawing 16]: in data set [2] (intraperitoneal, 100 mg/kg, 20 hours), the “Inhibitory Effect” value is recorded as 52%.

As for `COc1ccc(CCNC(=O)CNc2cccc(C(N)=O)c2)cc1OC` [Compound 4, 2-(3-carbamoylphenylamino)-N-(3,4-dimethoxyphenethyl)acetamide.3H2 O], the “stability under high humidity” value in data set [6] (high humidity at an elevated temperature) was “very stable”. In addition, the relative critical humidity result in data set [6] (isothermal absorption curve) is recorded as “had not relative critical humidity”. For the same compound, the color change entry is given as “--” in data set [7] (additive Calcium Phosphate Dibasic, one month storage, condition shown as drawing 6 (high humidity at an elevated temperature)); “--” in data set [7] (additive Calcium Phosphate Dibasic, one month, light 2500 lux); “--” in data set [7] (additive Cornstarch, one month storage, condition shown as drawing 6 (high humidity at an elevated temperature)); “--” in data set [7] (additive Cornstarch, one month, light 2500 lux); “--” in data set [7] (additive Crystalline Cellulose, one month storage, condition shown as drawing 6 (high humidity at an elevated temperature)); “--” in data set [7] (additive Crystalline Cellulose, one month, light 2500 lux). The color change result in data set [7] (additive Hydroxypropylcellulose, one month storage, condition shown as drawing 6 (high humidity at an elevated temperature)) is reported as “--”; in data set [7] (additive Hydroxypropylcellulose, one month, light 2500 lux) it was “--”; in data set [7] (additive Hydroxypropylmethylcellulose, one month storage, condition shown as drawing 6 (high humidity at an elevated temperature)), “±”; in data set [7] (additive Hydroxypropylmethylcellulose, one month, light 2500 lux), “--”; in data set [7] (additive Lactose, one month storage, condition shown as drawing 6 (high humidity at an elevated temperature)), “--”; in data set [7] (additive Lactose, one month, light 2500 lux), “--”. The color change entry in data set [7] (additive Macrogol 6000, one month storage, condition shown as drawing 6 (high humidity at an elevated temperature)) is “--”; in data set [7] (additive Macrogol 6000, one month, light 2500 lux), “--”; in data set [7] (additive Magnesium Stearate, one month storage, condition shown as drawing 6 (high humidity at an elevated temperature)) it was “--”; in data set [7] (additive Magnesium Stearate, one month, light 2500 lux) it was “--”; in data set [7] (additive Mannitol, one month storage, condition shown as drawing 6 (high humidity at an elevated temperature)), “--”; in data set [7] (additive Mannitol, one month, light 2500 lux), “--”. Besides, the color change entry in data set [7] (additive Polyvinyl Alcohol, one month storage, condition shown as drawing 6 (high humidity at an elevated temperature)) is “--”; in data set [7] (additive Polyvinyl Alcohol, one month, light 2500 lux), “--”; in data set [7] (additive Sucrose, one month storage, condition shown as drawing 6 (high humidity at an elevated temperature)), “--”; in data set [7] (additive Sucrose, one month, light 2500 lux) it was “--”; in data set [7] (additive Talc, one month storage, condition shown as drawing 6 (high humidity at an elevated temperature)) it was “--”; in data set [7] (additive Talc, one month, light 2500 lux), “--”. Besides, the “stability of mixture with additives” value in data set [7] (in words, high humidity at an elevated temperature for one month or light irradiation from 2,500 lux for one month) was “stable”. Besides, the stability in methanol result in data set [8] is “stable”. This compound displayed an inhibition in vivo at 100 mg/kg in data set [2] (po, 7 h, 100 mg/kg) of 23%. For the same compound, in data set [2] (po, 7 h), the inhibition in vivo at 200 mg/kg is 36%. Also, the inhibition in vivo at 400 mg/kg in data set [2] (po, 7 h) came out at 70%.

Turning to `COc1ccc(CCNC(=O)CNc2ccc(Cl)cc2C(N)=O)cc1OC`, the inhibition in vivo at 100 mg/kg in data set [2] (setting [9]) amounted to 34%.

In data set [2] (setting [9]), `COc1ccc(CCNC(=O)CNc2cc(Cl)ccc2C(N)=O)cc1OC` [drawing 11] had an inhibition in vivo at 100 mg/kg of 38%.

Regarding `CCN1CCCC1CNC(=O)c1cc(S(N)(=O)=O)ccc1OC` (centres unmarked) [Sulpiride, N-[(1-ethyl-2-pyrrolidinyl)methyl]-2-methoxy-5-sulfamoylbenzamide, reference compound], the inhibition in vivo at 100 mg/kg worked out at 27% in data set [2] (setting [9]); 29% in data set [2] (po, 7 h, 100 mg/kg); 5% in data set [2] (po, 20 h, 100 mg/kg). In addition, the inhibition in vivo at 200 mg/kg in data set [2] (po, 7 h) was determined as 20%; in data set [2] (po, 20 h), 4%. The inhibition in vivo at 400 mg/kg amounted to 39% in data set [2] (po, 7 h) and 11% in data set [2] (po, 20 h).

With `COc1ccc(CCNC(=O)CNc2ccc(C(N)=O)cc2)cc1OC`, 100 mg/kg produced 20% inhibition in vivo in data set [2] (setting [9]).

For the compound `COc1ccc(CCNC(=O)CNc2cccc(Cl)c2)cc1OC`, testing at 100 mg/kg in data set [2] (setting [9]) gave an inhibition in vivo of 36%.

Compound `COc1ccc(CCNC(=O)CNc2cc(N)ncn2)cc1OC` gave an inhibition in vivo at 100 mg/kg in data set [2] (setting [9]) of 27%.

For the compound `COc1ccc(CCNC(=O)CNc2cccc(C(N)=O)c2)cc1OC` [drawing 15], at 100 mg/kg the inhibition in vivo in data set [2] (setting [9]) was 53%.

In turn, `COc1ccc(CCNC(=O)CNc2ccccc2)cc1OC` [Compound 3, 2-(phenylamino)-N-(3,4-dimethoxyphenethyl)acetamide hydrochloride] showed an inhibition in vivo at 100 mg/kg in data set [2] (po, 20 h, 100 mg/kg) of 20%. Further, in data set [2] (po, 20 h), the inhibition in vivo at 200 mg/kg turned out to be 20% and 400 mg/kg produced 25% inhibition in vivo.

In turn, `COc1ccc(CCNC(=O)CNc2cc(OC)c(C(N)=O)cc2Cl)cc1OC` gave an inhibition in vivo at 100 mg/kg in data set [2] (setting [9]) of 21%.

Source of the values: US4297357A, “N-Phenethylacetamide compounds and process for preparation thereof” (Daiichi Seiyaku Co., Ltd., priority 1978, dated 1981).
